Data published in ChEMBL document CHEMBL5724914, “Linking interpersonal differences in gut microbiota composition and drug biotransformation activity” (2024).

Key:
[1] = (§1) The drug is tested on Z-028 corresponding to mouse gut metagenome with ENA study accession number: PRJEB37062 and ENA sample accession number: ERS12561827 for biotransformation under anaerobic condition. The drug concentrations were measured over 9 timepoints collected between 0 and 24 hours of incubation by liquid-chromatography-coupled mass spectrometry (LC–MS); conditions: 2 µM
[2] = as §1, with “Z-025” for “Z-028”, “rabbit” for “mouse”, “ERS12561824” for “ERS12561827”; conditions: 2 µM
[3] = as §1, with “Z-022” for “Z-028”, “ERS12561821” for “ERS12561827”; conditions: 2 µM
[4] = as §1, with “Z-013” for “Z-028”, “rabbit” for “mouse”, “ERS12561813” for “ERS12561827”; conditions: 2 µM
[5] = as §1, with “Z-011” for “Z-028”, “ERS12561811” for “ERS12561827”; conditions: 2 µM
[6] = as §1, with “WLS-370” for “Z-028”, “human” for “mouse”, “ERS12561793” for “ERS12561827”; conditions: 2 µM
[7] = as §1, with “WLS-086” for “Z-028”, “human” for “mouse”, “ERS12561752” for “ERS12561827”; conditions: 2 µM
[8] = as §1, with “WLS-027” for “Z-028”, “human” for “mouse”, “ERS12561744” for “ERS12561827”; conditions: 2 µM
[9] = human gut metagenome, 24 h, 2 µM
Further: call rule not given here.

SMILES | Bacterial Biotransformation [1] | Bacterial Biotransformation [2] | Bacterial Biotransformation [3] | Bacterial Biotransformation [4] | Bacterial Biotransformation [5] | Bacterial Biotransformation [6] | Bacterial Biotransformation [7] | Bacterial Biotransformation [8] | Bacterial Biotransformation [9]
CCN(CC)CCOCCOC(=O)C1(c2ccccc2)CCCC1.O=C(O)CC(O)(CC(=O)O)C(=O)O [CARBETAPENTANE CITRATE] | Compound NOT metabolized | Compound NOT metabolized | Compound metabolized | Compound NOT metabolized | Compound NOT metabolized | Compound metabolized | Compound NOT metabolized | Compound metabolized | Compound metabolized
COc1ccc2c3c1O[C@H]1C[C@@H](O)C=C[C@@]31CCN(C)C2 [GALANTAMINE] | Compound NOT metabolized | Compound NOT metabolized | Compound NOT metabolized | Compound NOT metabolized | Compound NOT metabolized | Compound NOT metabolized | Compound metabolized | Compound NOT metabolized | Compound NOT metabolized
Br.CN(C)CCCC1(c2ccc(F)cc2)OCc2cc(C#N)ccc21 (configuration not stated) [CITALOPRAM HYDROBROMIDE] | Compound NOT metabolized | Compound NOT metabolized | Compound NOT metabolized | Compound NOT metabolized | Compound metabolized | Compound metabolized | Compound metabolized | Compound NOT metabolized | Compound NOT metabolized
CN(C)CCC=C1c2ccccc2C=Cc2ccccc21 [CYCLOBENZAPRINE] | Compound NOT metabolized | Compound metabolized | Compound NOT metabolized | Compound NOT metabolized | Compound NOT metabolized | Compound metabolized | Compound metabolized | Compound metabolized | Compound NOT metabolized
CCN(CC)CC#CCOC(=O)C(O)(c1ccccc1)C1CCCCC1.Cl (configuration not stated) [OXYBUTYNIN CHLORIDE] | Compound NOT metabolized | Compound NOT metabolized | Compound metabolized | Compound NOT metabolized | Compound NOT metabolized | Compound metabolized | Compound metabolized | Compound metabolized | Compound metabolized
CN/C(=N/CCSCc1nc[nH]c1C)NC#N [CIMETIDINE] | Compound NOT metabolized | Compound NOT metabolized | Compound NOT metabolized | Compound NOT metabolized | Compound NOT metabolized | Compound NOT metabolized | Compound metabolized | Compound metabolized | Compound NOT metabolized
C#C[C@]1(O)CC[C@H]2[C@@H]3CCC4=CC(=O)CC[C@@H]4[C@H]3CC[C@@]21CC [LEVONORGESTREL] | Compound metabolized | Compound metabolized | Compound metabolized | Compound metabolized | Compound metabolized | Compound metabolized | Compound metabolized | Compound metabolized | Compound metabolized
CC(=O)OCC(=O)[C@@]1(O)[C@@H](C)C[C@H]2[C@@H]3CCC4=CC(=O)C=C[C@]4(C)[C@@]3(F)[C@@H](O)C[C@@]21C [BETAMETHASONE ACETATE] | Compound metabolized | Compound metabolized | Compound metabolized | Compound metabolized | Compound metabolized | Compound metabolized | Compound metabolized | Compound metabolized | Compound metabolized
CO[C@]12C[C@@H](COC(=O)c3cncc(Br)c3)CN(C)[C@@H]1Cc1cn(C)c3cccc2c13 [NICERGOLINE] | Compound metabolized | Compound metabolized | Compound metabolized | Compound metabolized | Compound metabolized | Compound metabolized | Compound metabolized | Compound metabolized | Compound NOT metabolized
CCCCc1nc(Cl)c(CO)n1Cc1ccc(-c2ccccc2-c2nn[nH]n2)cc1 [LOSARTAN] | Compound NOT metabolized | Compound NOT metabolized | Compound NOT metabolized | Compound NOT metabolized | Compound NOT metabolized | Compound metabolized | Compound metabolized | Compound metabolized | Compound metabolized
CCOC(=O)[C@H](CCc1ccccc1)N[C@@H](C)C(=O)N1[C@H](C(=O)O)C[C@H]2CCCC[C@@H]21 [TRANDOLAPRIL] | Compound NOT metabolized | Compound NOT metabolized | Compound NOT metabolized | Compound NOT metabolized | Compound NOT metabolized | Compound NOT metabolized | Compound metabolized | Compound metabolized | Compound NOT metabolized
CN1CCc2c(c3ccccc3n2Cc2ccccc2)C1.CN1CCc2c(c3ccccc3n2Cc2ccccc2)C1.O=S(=O)(O)c1cccc2c(S(=O)(=O)O)cccc12 | Compound NOT metabolized | Compound metabolized | Compound NOT metabolized | Compound NOT metabolized | Compound NOT metabolized | Compound metabolized | Compound NOT metabolized | Compound metabolized | Compound NOT metabolized
CN(C)C(=O)C(CCN1CCC(O)(c2ccc(Cl)cc2)CC1)(c1ccccc1)c1ccccc1 [LOPERAMIDE] | Compound metabolized | Compound metabolized | Compound metabolized | Compound metabolized | Compound NOT metabolized | Compound metabolized | Compound metabolized | Compound metabolized | Compound metabolized
CCCCC(=O)N(Cc1ccc(-c2ccccc2-c2nnn[nH]2)cc1)[C@H](C(=O)O)C(C)C | Compound NOT metabolized | Compound NOT metabolized | Compound NOT metabolized | Compound NOT metabolized | Compound NOT metabolized | Compound metabolized | Compound metabolized | Compound metabolized | Compound metabolized
CN1CC(=O)N2[C@H](c3ccc4c(c3)OCO4)c3[nH]c4ccccc4c3C[C@@H]2C1=O | Compound NOT metabolized | Compound NOT metabolized | Compound metabolized | Compound NOT metabolized | Compound NOT metabolized | Compound metabolized | Compound metabolized | Compound metabolized | Compound metabolized
CCCc1nc(C(C)(C)O)c(C(=O)OCc2oc(=O)oc2C)n1Cc1ccc(-c2ccccc2-c2nnn[nH]2)cc1 [OLMESARTAN MEDOXOMIL] | Compound NOT metabolized | Compound metabolized | Compound metabolized | Compound metabolized | Compound NOT metabolized | Compound metabolized | Compound metabolized | Compound metabolized | Compound NOT metabolized
CC(CN1c2ccccc2Sc2ccccc21)N(C)C (configuration not stated) [PROMETHAZINE] | Compound NOT metabolized | Compound metabolized | Compound NOT metabolized | Compound NOT metabolized | Compound NOT metabolized | Compound NOT metabolized | Compound metabolized | Compound metabolized | Compound metabolized
COc1ccccc1OCC(O)COC(N)=O (configuration not stated) [METHOCARBAMOL] | Compound NOT metabolized | Compound NOT metabolized | Compound NOT metabolized | Compound NOT metabolized | Compound NOT metabolized | Compound NOT metabolized | Compound NOT metabolized | Compound NOT metabolized | Compound NOT metabolized
